Test results reported in PMC12320831, “Synthesis and Biological Evaluation of New Chalcogen Semicarbazone (S, Se) and Their Azole Derivatives against Chagas Disease” (Journal of Medicinal Chemistry, 2024).
Where a name gives a salt, the structure may show the parent alone. Read-outs that look alike come from different tables or passages of the source.

Assays:
[1] = test system: T. cruzi CAI/72 strain; experiment: Antiparasitic activity in C2C12 cells infected with T. cruzi CAI/72 (image-based assay); format: cell-based; details: Trypanosoma cruzi
Description: Antiparasitic activity and cytotoxicity of compounds were determined as described before (da Silva et al., Boudreau et al.). Mouse myoblasts cell line C2C12 (ATCCCRL-1772), were maintained in high glucose (4.5 g/L glucose) Dulbecco’s modified Eagle’s medium (DMEM Gibco), supplemented with 1% penicillin–streptomycin 10,000 U/mL (Gibco) and 5% fetal bovine serum (FBS, Sigma-Aldrich) at 37 °C with 5% CO2. parasites (CAI/72 strain, DTU TcI) were maintained by weekly coinfection with C2C12 cells. For all activity assays, C2C12 cells were infected at a 10:1 parasite-to-cell ratio with culture-derived trypomastigotes, which were harvested from the supernatant of infected C2C12 cells. After adding compounds to 384-well black clear-bottom plates (Greiner cat. no. 781091), trypomastigotes (7000 parasites/well) and C2C12 cells (700 cells/well) were seeded in a total volume of 50 μL of DMEM per well in the 384-well plates. Compounds were first tested at 10 μM. […] Plates were imaged with the automated ImageXpress MicroXL microscope (Molecular Devices) and analyzed by MetaXpress software (Molecular Devices) using a custom module optimized for this assay. Infection levels (parasites per host cell) were normalized to the positive control (40 μM BNZ) and negative control (DMSO). Antiparasitic activity (EC50) ± standard deviation (SD) and host cell cytotoxicity (C2C12 viability) values were determined from the DRC using Prism software (GraphPad Software, La Jolla, CA). Every assay has three biological replicates, each in triplicates (n = 9 data points).

[2] = Host cell cytotoxicity (C2C12 viability); format: cell-based, Mouse; details: mouse; for viability at 48 h, 10 µM: < 50% viability considered cytotoxic
Description: Antiparasitic activity and cytotoxicity of compounds were determined as described before (da Silva et al., Boudreau et al.). Mouse myoblasts cell line C2C12 (ATCCCRL-1772), were maintained in high glucose (4.5 g/L glucose) Dulbecco’s modified Eagle’s medium (DMEM Gibco), supplemented with 1% penicillin–streptomycin 10,000 U/mL (Gibco) and 5% fetal bovine serum (FBS, Sigma-Aldrich) at 37 °C with 5% CO2. parasites (CAI/72 strain, DTU TcI) were maintained by weekly coinfection with C2C12 cells. For all activity assays, C2C12 cells were infected at a 10:1 parasite-to-cell ratio with culture-derived trypomastigotes, which were harvested from the supernatant of infected C2C12 cells. After adding compounds to 384-well black clear-bottom plates (Greiner cat. no. 781091), trypomastigotes (7000 parasites/well) and C2C12 cells (700 cells/well) were seeded in a total volume of 50 μL of DMEM per well in the 384-well plates. Compounds were first tested at 10 μM. […] After 48 h at 37 °C and 5% CO2, plates were fixed with 4% formaldehyde solution for at least 1 h, washed with 1× PBS, and stained with 5 μg/mL of 4′,6-diamidino-2-phenylindole (DAPI) for at least 1 h prior to reading. Plates were imaged with the automated ImageXpress MicroXL microscope (Molecular Devices) and analyzed by MetaXpress software (Molecular Devices) using a custom module optimized for this assay. Infection levels (parasites per host cell) were normalized to the positive control (40 μM BNZ) and negative control (DMSO). Antiparasitic activity (EC50) ± standard deviation (SD) and host cell cytotoxicity (C2C12 viability) values were determined from the DRC using Prism software (GraphPad Software, La Jolla, CA). Every assay has three biological replicates, each in triplicates (n = 9 data points).

[3] = target: T1, recombinant Cz (cruzain) (Trypanosoma cruzi, UniProt P25779); experiment: biochemical; details: read-out: Cz inhibition (%), 10 µM
T1 construct: Cz was expressed and purified as described in da Silva et al; made in house
Description: The screening assay was performed using 1 nM of Cz diluted in 0.1 M sodium acetate pH 5.5, 1 mM dithiothreitol (DTT), and 0.01% Triton X-100. Cz was expressed and purified as described in da Silva et al. The reaction starts after 10 min incubating the enzyme with the compounds (10 μM), when adding 2.5 μM of the substrate Z-FR-AMC final concentration (Z-Phe-Arg-amidomethylcoumarin, Sigma-Aldrich, C9521) diluted in the same assay buffer (final volume of 30 μL). The experiment was performed for 10 min. […] The DRC was performed with at least nine different concentrations of the inhibitors, diluted by 2-fold serial dilution, ranging from […] to 10 μM.
All experiments were accomplished in a 384-well black microplate, using a Synergy HTX (Biotek) plate reader at 25 °C with absorption/emission wavelengths of 360/460 nm. All assays were performed in triplicate wells and DMSO was used as a vehicle control. Enzymatic activity was measured and normalized to DMSO controls, and the inhibitor E-64 (10 μM) was used as a positive control for all assays. All experiments were performed in triplicates, with at least two independent assays (n = 6 data points). IC50 values were determined through nonlinear regression. Obtained data were treated and analyzed using GraphPad Prism 9.0 (GraphPad Software, La Jolla, California).

[4] = 10 µM, C2C12 infected cells, read-out: Anti-Tc CAI/72 activity (%)
[5] = C2C12 myoblast cells infected with trypomastigotes
[6] = C2C12, read-out: Anti-Tc CAI/72 activity (%)

T1 sequence (P25779 123-337 limits assumed): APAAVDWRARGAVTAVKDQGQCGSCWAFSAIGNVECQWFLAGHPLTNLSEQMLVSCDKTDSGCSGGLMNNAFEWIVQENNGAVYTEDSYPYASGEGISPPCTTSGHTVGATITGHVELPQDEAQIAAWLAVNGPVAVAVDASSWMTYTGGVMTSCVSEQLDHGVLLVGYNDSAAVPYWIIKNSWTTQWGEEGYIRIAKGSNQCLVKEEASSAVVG

Row | SMILES | inhibition at 10 µM [1, 4] [%] | viability at 48 h, 10 µM [2, 5] [%] | inhibition at 10 µM [3] [%] | viability at 48 h, 10 µM [2] [%] | inhibition at 10 µM [1, 6] [%] | EC50 ([1]; C2C12, 48 h, read-out: EC50 Tc CAI/72, intracellular amastigotes in C2C12 cells, 48 h, mean of three experiments in triplicate (n = 9) ± SD) [nM] | CC50 at 48 h ([2]; viability calculated at 10 μM) [nM]
1 | C/C(=N\Nc1nc(C)cs1)c1ccc(Br)cc1 [Compound S2f, (E)-2-(2-(1-(4-Bromophenyl)ethylidene)hydrazineyl)-4-methylthiazole hydrochloride] | 1.1 | > 100 | 53 | – | – | – | –
2 | COc1cccc(/C(C)=N/Nc2nc(C)cs2)c1 [Compound S2g, (E)-2-(2-(1-(3-Methoxyphenyl)ethylidene)hydrazineyl)-4-methylthiazole hydrochloride] | 40.6 | > 100 | 45.1 | – | – | – | –
3 | C/C(=N\Nc1nc(C)cs1)c1ccc(F)c(F)c1 [Compound S2j, (E)-2-(2-(1-(3,4-Difluorophenyl)ethylidene)hydrazineyl)-4-methylthiazole Hydrochloride] | 28.3 | > 100 | 79.4 | – | – | – | –
4 | COc1ccc(/C(C)=N/Nc2nc(C)cs2)c(OC)c1 [Compound S2k, (E)-2-(2-(1-(2,4-Dimethoxyphenyl)ethylidene)hydrazineyl)-4-methylthiazole Hydrochloride] | 46 | > 100 | 34.2 | – | – | – | –
5 | C/C(=N\Nc1nc(C)cs1)c1ccsc1 [Compound S2l, (E)-4-Methyl-2-(2-(1-(thiophen-3-yl)ethylidene)hydrazineyl)thiazole Hydrochloride] | 19.5 | > 100 | 31.6 | – | – | – | –
6 | C/C(=N\Nc1nc(C)cs1)c1csc2ccccc12 [Compound S2o, (E)-2-(2-(1-(Benzo[b]thiophen-3-yl)ethylidene)hydrazineyl)-4-methylthiazole Hydrochloride] | 45.7 | > 100 | 27.9 | – | – | – | –
7 | C/C(=N\Nc1nc(C)cs1)c1cc2ccccc2o1 [Compound S2p, (E)-2-(2-(1-(Benzofuran-2-yl)ethylidene)hydrazineyl)-4-methylthiazole Hydrochloride] | 31.4 | > 100 | 74.3 | – | – | – | –
8 | C/C(=N\Nc1nc(C)cs1)C12CC3CC(CC(C3)C1)C2 [Compound S2q, 2-(2-((E)-1-((3s)-Adamantan-1-yl)ethylidene)hydrazineyl)-4-methylthiazole Hydrochloride] | 40.5 | > 100 | 30.5 | – | – | – | –
9 | C/C(=N\NC(N)=[Se])c1ccc(C)cc1 [Se1a, (E)-2-(1-(4-Tolyl)ethylidene)hydrazine-1-carboselenoamide] | 21.6 | – | 98.2 | 34.1 | – | – | –
10 | COc1ccc(/C(C)=N/NC(N)=[Se])cc1 [Se1b, (E)-2-(1-(4-Methoxyphenyl)ethylidene)hydrazine-1-carboselenoamide] | – | – | 98.9 | 40.9 | 30 | – | –
11 | COc1cccc(/C(C)=N/NC(N)=[Se])c1 [Se1g, (E)-2-(1-(3-Methoxyphenyl)ethylidene)hydrazine-1-carboselenoamide] | – | – | 101 | 31.1 | 7.03 | – | –
12 | C/C(=N\NC(N)=[Se])c1ccsc1 [Se1l, (E)-2-(1-(Thiophen-3-yl)ethylidene)hydrazine-1-carboselenoamide] | – | – | 90.1 | 38.1 | 30.5 | – | –
13 | C/C(=N\NC(N)=[Se])c1csc2ccccc12 [Se1o, (E)-2-(1-(Benzo[b]thiophen-3-yl)ethylidene)hydrazine-1-carboselenoamide] | – | – | 93.7 | 31.4 | 4.32 | – | –
14 | C/C(=N\NC(N)=[Se])c1cc2ccccc2o1 [Se1p, (E)-2-(1-(Benzofuran-2-yl)ethylidene)hydrazine-1-carboselenoamide] | – | – | 102 | 39.4 | 28.8 | – | –
15 | C/C(=N\NC(N)=[Se])C12CC3CC(CC(C3)C1)C2 [Se1q, (E)-2-(1-((3r,5r,7r)-Adamantan-1-yl)ethylidene)hydrazine-1-carboselenoamide] | – | – | 83.8 | 78.6 | 16.2 | – | –
16 | C/C(=N\Nc1nc(C)c[se]1)c1ccc(C)cc1 [Se2a, (E)-4-Methyl-2-(2-(1-(4-tolyl)ethylidene)hydrazineyl)-1,3-selenazole Hydrochloride] | – | – | 28.6 | 91.9 | 11.1 | – | –
17 | COc1ccc(/C(C)=N/Nc2nc(C)c[se]2)cc1 [Se2b, (E)-2-(2-(1-(4-Methoxyphenyl)ethylidene)hydrazineyl)-4-methyl-1,3-selenazole Hydrochloride] | – | – | 21.6 | 94 | 12.1 | – | –
18 | C/C(=N\Nc1nc(C)c[se]1)c1ccc(C(F)(F)F)cc1 [Se2d, (E)-4-Methyl-2-(2-(1-(4-(trifluoromethyl)phenyl)ethylidene)hydrazineyl)-1,3-selenazole Hydrochloride] | – | – | 95.2 | 96.1 | 27.9 | – | –
19 | C/C(=N\Nc1nc(C)c[se]1)c1ccc(Br)cc1 [Se2f, (E)-2-(2-(1-(4-Bromophenyl)ethylidene)hydrazineyl)-4-methyl-1,3-selenazole Hydrochloride] | – | – | 98.6 | 87.7 | 18.3 | – | –
20 | COc1cccc(/C(C)=N/Nc2nc(C)c[se]2)c1 [Se2g, (E)-2-(2-(1-(3-Methoxyphenyl)ethylidene)hydrazineyl)-4-methyl-1,3-selenazole Hydrochloride] | – | – | 62.9 | > 100 | 55.1 | 2670 ± 1130 | > 10000
21 | C/C(=N\Nc1nc(C)c[se]1)c1ccc(F)c(F)c1 [Se2j, (E)-2-(2-(1-(3,4-Difluorophenyl)ethylidene)hydrazineyl)-4-methyl-1,3-selenazole Hydrochloride] | – | – | 102 | 38.3 | 18.7 | – | –
22 | C/C(=N\Nc1nc(C)c[se]1)c1csc2ccccc12 [Se2o, (E)-2-(2-(1-(Benzo[b]thiophen-3-yl)ethylidene)hydrazineyl)-4-methyl-1,3-selenazole Hydrochloride] | – | – | 101 | > 100 | 42.3 | – | –
23 | C/C(=N\Nc1nc(C)c[se]1)c1cc2ccccc2o1 [Se2p, (E)-2-(2-(1-(Benzofuran-2-yl)ethylidene)hydrazineyl)-4-methyl-1,3-selenazole Hydrochloride] | – | – | 98.5 | > 100 | 26.6 | – | –
